Assay results: the NIST ThermoML archive (doi:10.1021/je400055v)

Assay: xn = mol fraction of the nth substance listed
Details: Liquid, Vibrating tube method, x1 = 0.4891

Cc1cccc(O)c1 [3-methylphenol] + Cc1ccccc1O
Details | mass density [kg/m3]
313.19 K, 103.35 kPa | 1023.8
313.19 K, 206.8 kPa | 1024.3
313.19 K, 308.94 kPa | 1024.9
313.19 K, 406.72 kPa | 1025.5
313.19 K, 509.16 kPa | 1026
313.19 K, 609.17 kPa | 1026.6
313.19 K, 710.69 kPa | 1027.1
313.19 K, 813.34 kPa | 1027.7
313.19 K, 912.33 kPa | 1028.3
313.19 K, 1014.1 kPa | 1028.8
313.19 K, 1115.4 kPa | 1029.3
313.19 K, 1219.9 kPa | 1029.9
313.19 K, 1317.7 kPa | 1030.4
313.19 K, 1421.7 kPa | 1031
313.19 K, 1522.3 kPa | 1031.5
313.19 K, 1625.4 kPa | 1032.1
313.19 K, 1723.2 kPa | 1032.6
313.19 K, 1824.4 kPa | 1033.1
313.19 K, 1926.4 kPa | 1033.6
313.19 K, 2026.8 kPa | 1034.1
313.19 K, 2129.3 kPa | 1034.7
313.19 K, 2229.4 kPa | 1035.2
313.19 K, 2333 kPa | 1035.7
313.19 K, 2433.2 kPa | 1036.2
313.19 K, 2532.9 kPa | 1036.7
323.14 K, 101.12 kPa | 1015.4
323.14 K, 206.5 kPa | 1016
323.14 K, 310.87 kPa | 1016.6
323.14 K, 408.14 kPa | 1017.1
323.14 K, 510.78 kPa | 1017.8
323.14 K, 609.67 kPa | 1018.3
323.14 K, 712.01 kPa | 1018.9
323.14 K, 812.42 kPa | 1019.5
323.14 K, 916.79 kPa | 1020.1
323.14 K, 1012.2 kPa | 1020.6
323.14 K, 1115.9 kPa | 1021.2
323.14 K, 1217.9 kPa | 1021.8
323.14 K, 1321.1 kPa | 1022.4
323.14 K, 1420.2 kPa | 1022.9
323.14 K, 1520.1 kPa | 1023.5
323.14 K, 1622.5 kPa | 1024
323.14 K, 1723.3 kPa | 1024.6
323.14 K, 1823.7 kPa | 1025.1
323.14 K, 1926.1 kPa | 1025.6
323.14 K, 2028 kPa | 1026.2
323.14 K, 2128.7 kPa | 1026.7
323.14 K, 2232.2 kPa | 1027.3
323.14 K, 2331 kPa | 1027.8
323.14 K, 2434.8 kPa | 1028.4
323.14 K, 2533.2 kPa | 1028.9
333.08 K, 104.06 kPa | 1007
333.08 K, 209.13 kPa | 1007.6
333.08 K, 305.29 kPa | 1008.2
333.08 K, 408.54 kPa | 1008.8
333.08 K, 507.94 kPa | 1009.4
333.08 K, 610.79 kPa | 1010.1
333.08 K, 708.67 kPa | 1010.6
333.08 K, 812.42 kPa | 1011.3
333.08 K, 913.04 kPa | 1011.9
333.08 K, 1015.7 kPa | 1012.5
333.08 K, 1115.2 kPa | 1013
333.08 K, 1217.7 kPa | 1013.7
333.08 K, 1318 kPa | 1014.2
333.08 K, 1419 kPa | 1014.8
333.08 K, 1520.9 kPa | 1015.4
333.08 K, 1624.9 kPa | 1016
333.08 K, 1724.2 kPa | 1016.6
333.08 K, 1824.2 kPa | 1017.1
333.08 K, 1925.9 kPa | 1017.7
333.08 K, 2031 kPa | 1018.3
333.08 K, 2132.9 kPa | 1018.9
333.08 K, 2232.5 kPa | 1019.4
333.08 K, 2336 kPa | 1020
333.08 K, 2438 kPa | 1020.6
333.08 K, 2536.6 kPa | 1021.1
343.04 K, 103.66 kPa | 998.4
343.04 K, 208.53 kPa | 999
343.04 K, 305.8 kPa | 999.7
343.04 K, 406.72 kPa | 1000.3
343.04 K, 510.78 kPa | 1001
343.04 K, 609.67 kPa | 1001.6
343.04 K, 711.4 kPa | 1002.3
343.04 K, 812.12 kPa | 1002.9
343.04 K, 912.13 kPa | 1003.5
343.04 K, 1014 kPa | 1004.1
343.04 K, 1115.1 kPa | 1004.8
343.04 K, 1220.8 kPa | 1005.4
343.04 K, 1318.1 kPa | 1006
343.04 K, 1420.7 kPa | 1006.6
343.04 K, 1520.6 kPa | 1007.2
343.04 K, 1621 kPa | 1007.9
343.04 K, 1722.2 kPa | 1008.4
343.04 K, 1824.6 kPa | 1009.1
343.04 K, 1925.9 kPa | 1009.7
343.04 K, 2028.3 kPa | 1010.2
343.04 K, 2130 kPa | 1010.8
343.04 K, 2233.9 kPa | 1011.4
343.04 K, 2330.6 kPa | 1011.9
343.04 K, 2432 kPa | 1012.5
343.04 K, 2536.8 kPa | 1013.1
352.98 K, 105.78 kPa | 990
352.98 K, 204.88 kPa | 990.6
352.98 K, 305.29 kPa | 991.3
352.98 K, 408.64 kPa | 992
352.98 K, 509.16 kPa | 992.6
352.98 K, 610.18 kPa | 993.3
352.98 K, 707.96 kPa | 993.9
352.98 K, 810.8 kPa | 994.7
352.98 K, 913.45 kPa | 995.3
352.98 K, 1013.5 kPa | 996
352.98 K, 1116.7 kPa | 996.6
352.98 K, 1217.9 kPa | 997.2
352.98 K, 1316.1 kPa | 997.9
352.98 K, 1418 kPa | 998.5
352.98 K, 1519.3 kPa | 999.1
352.98 K, 1623.4 kPa | 999.8
352.98 K, 1723.3 kPa | 1000.4
352.98 K, 1821.8 kPa | 1001
352.98 K, 1928 kPa | 1001.7
352.98 K, 2027.3 kPa | 1002.3
352.98 K, 2129.3 kPa | 1002.9
352.98 K, 2237.1 kPa | 1003.5
352.98 K, 2331.9 kPa | 1004.2
352.98 K, 2437.8 kPa | 1004.8
352.98 K, 2536.4 kPa | 1005.4
362.91 K, 106.69 kPa | 981.5
362.91 K, 203.97 kPa | 982.2
362.91 K, 305.9 kPa | 982.9
362.91 K, 407.53 kPa | 983.6
362.91 K, 510.78 kPa | 984.3
362.91 K, 608.36 kPa | 985
362.91 K, 708.57 kPa | 985.7
362.91 K, 811.21 kPa | 986.3
362.91 K, 912.33 kPa | 987
362.91 K, 1013.1 kPa | 987.7
362.91 K, 1114.2 kPa | 988.3
362.91 K, 1215.1 kPa | 989
362.91 K, 1318.3 kPa | 989.7
362.91 K, 1418.7 kPa | 990.3
362.91 K, 1520.8 kPa | 991
362.91 K, 1622.2 kPa | 991.7
362.91 K, 1723.8 kPa | 992.3
362.91 K, 1825.8 kPa | 993
362.91 K, 1926.1 kPa | 993.6
362.91 K, 2030.7 kPa | 994.3
362.91 K, 2128.7 kPa | 994.9
362.91 K, 2230.1 kPa | 995.5
362.91 K, 2332.4 kPa | 996.2
362.91 K, 2434.6 kPa | 996.8
362.91 K, 2536.1 kPa | 997.5
